Where “and” joins values, the source holds several entries; their conditions need not be identical. Equal values may be shown once.
Experiments:
Assay in all cases: PDSP GPCR panel primary binding assays at 10 μM
[1] = target: T1, cloned human or rodent CNS receptors, channels, and transporters (PDSP panel) (Homo sapiens, UniProt P11229); details: M1, primary assay; for Mean %: mean inhibition; for Inhibition 1: replicate 1; for Inhibition 2: replicate 2; for Inhibition 3: replicate 3; for Inhibition 4: replicate 4
T1 construct: expressed in transfected cells
T1 sequence (P11229 1-460): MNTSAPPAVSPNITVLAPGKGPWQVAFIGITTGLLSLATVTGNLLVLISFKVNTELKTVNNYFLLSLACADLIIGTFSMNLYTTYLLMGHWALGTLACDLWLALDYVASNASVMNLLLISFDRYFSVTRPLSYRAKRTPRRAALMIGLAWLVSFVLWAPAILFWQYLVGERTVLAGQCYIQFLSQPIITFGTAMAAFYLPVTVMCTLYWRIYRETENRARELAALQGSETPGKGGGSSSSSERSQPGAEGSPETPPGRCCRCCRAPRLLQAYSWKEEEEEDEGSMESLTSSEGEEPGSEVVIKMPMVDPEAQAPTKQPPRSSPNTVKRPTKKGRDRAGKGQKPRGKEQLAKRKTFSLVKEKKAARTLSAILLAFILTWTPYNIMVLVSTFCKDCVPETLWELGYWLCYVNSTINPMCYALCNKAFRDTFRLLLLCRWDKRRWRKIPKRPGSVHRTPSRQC
Method in brief: (§1)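 Competition binding with radiolabeled standard ligands, single 10 μM concentration, four replicates. Targets showing over 50% displacement were followed up with 11-point titrations in triplicate.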

[2] = target: T2, cloned human or rodent CNS receptors, channels, and transporters (PDSP panel) (Homo sapiens, UniProt P14416); details: D2, primary assay; for Mean %: mean inhibition; for Inhibition 1: replicate 1; for Inhibition 2: replicate 2; for Inhibition 3: replicate 3; for Inhibition 4: replicate 4
T2 construct: expressed in transfected cells
T2 sequence (P14416 whole entry): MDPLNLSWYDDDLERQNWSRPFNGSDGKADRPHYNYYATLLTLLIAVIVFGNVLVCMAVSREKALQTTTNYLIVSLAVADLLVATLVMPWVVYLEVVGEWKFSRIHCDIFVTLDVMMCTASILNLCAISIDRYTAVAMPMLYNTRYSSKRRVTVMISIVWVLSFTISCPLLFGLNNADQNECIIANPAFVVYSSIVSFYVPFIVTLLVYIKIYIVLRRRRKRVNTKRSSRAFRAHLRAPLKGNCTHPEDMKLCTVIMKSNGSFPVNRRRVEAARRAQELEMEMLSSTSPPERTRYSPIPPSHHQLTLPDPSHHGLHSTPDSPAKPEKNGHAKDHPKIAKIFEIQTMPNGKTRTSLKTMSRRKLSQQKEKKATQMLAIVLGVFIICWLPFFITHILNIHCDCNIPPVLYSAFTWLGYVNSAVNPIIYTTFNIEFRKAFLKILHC
Method in brief: as §1

[3] = target: T3, cloned human or rodent CNS receptors, channels, and transporters (PDSP panel) (Homo sapiens, UniProt P28335); details: 5-HT2C, primary assay; for Mean %: mean inhibition; for Inhibition 1: replicate 1; for Inhibition 2: replicate 2; for Inhibition 3: replicate 3; for Inhibition 4: replicate 4
T3 construct: expressed in transfected cells
T3 sequence (P28335 33-458): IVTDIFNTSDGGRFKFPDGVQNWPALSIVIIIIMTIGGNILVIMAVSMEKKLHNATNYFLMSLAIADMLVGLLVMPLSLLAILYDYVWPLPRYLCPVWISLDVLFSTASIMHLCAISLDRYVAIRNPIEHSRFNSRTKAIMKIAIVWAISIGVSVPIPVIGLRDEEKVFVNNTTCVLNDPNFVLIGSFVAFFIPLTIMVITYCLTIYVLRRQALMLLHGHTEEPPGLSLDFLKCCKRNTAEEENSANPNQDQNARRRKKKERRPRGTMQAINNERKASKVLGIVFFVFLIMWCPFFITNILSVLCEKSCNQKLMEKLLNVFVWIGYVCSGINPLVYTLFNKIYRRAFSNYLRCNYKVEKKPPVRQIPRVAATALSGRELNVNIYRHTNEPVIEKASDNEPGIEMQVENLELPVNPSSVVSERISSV
Method in brief: as §1

[4] = target: T4, cloned human or rodent CNS receptors, channels, and transporters (PDSP panel) (Homo sapiens, UniProt P35462); details: D3, primary assay; for Mean %: mean inhibition; for Inhibition 1: replicate 1; for Inhibition 2: replicate 2; for Inhibition 3: replicate 3; for Inhibition 4: replicate 4
T4 construct: expressed in transfected cells
T4 sequence (P35462 whole entry): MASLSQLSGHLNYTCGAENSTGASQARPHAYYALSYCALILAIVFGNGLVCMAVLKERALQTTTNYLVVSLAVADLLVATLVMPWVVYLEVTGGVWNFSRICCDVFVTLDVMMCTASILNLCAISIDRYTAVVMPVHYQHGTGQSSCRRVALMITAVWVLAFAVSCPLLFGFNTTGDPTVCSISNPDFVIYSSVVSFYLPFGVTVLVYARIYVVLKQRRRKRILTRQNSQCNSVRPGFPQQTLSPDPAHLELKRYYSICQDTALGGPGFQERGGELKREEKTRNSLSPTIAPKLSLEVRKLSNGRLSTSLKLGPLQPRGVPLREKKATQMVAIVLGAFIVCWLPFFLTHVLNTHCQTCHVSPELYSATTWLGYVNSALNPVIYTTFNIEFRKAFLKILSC
Method in brief: as §1

[5] = target: T5, cloned human or rodent CNS receptors, channels, and transporters (PDSP panel) (Homo sapiens, UniProt Q01959); details: DAT, primary assay; for Mean %: mean inhibition; for Inhibition 1: replicate 1; for Inhibition 2: replicate 2; for Inhibition 3: replicate 3; for Inhibition 4: replicate 4
T5 construct: expressed in transfected cells
T5 sequence (Q01959 whole entry): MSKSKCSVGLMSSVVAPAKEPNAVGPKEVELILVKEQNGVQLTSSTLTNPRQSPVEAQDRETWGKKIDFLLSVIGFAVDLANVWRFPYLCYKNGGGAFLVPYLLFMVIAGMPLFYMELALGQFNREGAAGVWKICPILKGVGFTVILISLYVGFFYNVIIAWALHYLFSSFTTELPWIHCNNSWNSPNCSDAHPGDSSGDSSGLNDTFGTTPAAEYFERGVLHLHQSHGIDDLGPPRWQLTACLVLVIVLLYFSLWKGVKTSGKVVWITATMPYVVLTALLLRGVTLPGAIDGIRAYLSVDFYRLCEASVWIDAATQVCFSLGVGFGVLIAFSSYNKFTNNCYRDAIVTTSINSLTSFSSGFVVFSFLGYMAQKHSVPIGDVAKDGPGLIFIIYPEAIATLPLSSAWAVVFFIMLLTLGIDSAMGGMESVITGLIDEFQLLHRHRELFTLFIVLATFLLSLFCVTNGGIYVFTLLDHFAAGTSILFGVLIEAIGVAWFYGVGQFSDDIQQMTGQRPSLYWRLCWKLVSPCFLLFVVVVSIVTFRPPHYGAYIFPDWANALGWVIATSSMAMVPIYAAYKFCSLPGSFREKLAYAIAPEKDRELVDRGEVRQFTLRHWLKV
Method in brief: as §1

[6] = test system: cloned human or rodent CNS receptors, channels, and transporters (PDSP panel); details: primary assay; for Mean %: mean inhibition; for Inhibition 1: replicate 1; for Inhibition 2: replicate 2; for Inhibition 3: replicate 3; for Inhibition 4: replicate 4
Method in brief: as §1

CC(=O)N1CCC(NC(=O)NC23CC4CC(CC(C4)C2)C3)CC1 [UNC10302683A, AR9281]
Mean % [1]: 7.62% | Inhibition 1 [1]: 23.24% | Inhibition 2 [1]: 6.49% | Inhibition 3 [1]: -4.8% | Inhibition 4 [1]: 5.55% | Mean % [2]: -5.85% | Inhibition 1 [2]: -4.63% | Inhibition 2 [2]: -2.98% | Inhibition 3 [2]: -11.83% | Inhibition 4 [2]: -3.95% | Mean % [3]: -19.88% | Inhibition 1 [3]: -9.33% | Inhibition 2 [3]: -11.78% | Inhibition 3 [3]: -20.61% | Inhibition 4 [3]: -37.79% | Mean % [4]: -9.76% | Inhibition 1 [4]: -1.76% | Inhibition 2 [4]: -6.19% | Inhibition 3 [4]: -8.7% | Inhibition 4 [4]: -22.39% | Mean % [5]: 71.25% | Inhibition 1 [5]: 78.11% | Inhibition 2 [5]: 65.9% | Inhibition 3 [5]: 74.33% | Inhibition 4 [5]: 66.66% | Mean % ([6]; Alpha1A): -5.99% | Inhibition 1 ([6]; Alpha1A): 5.7% | Inhibition 2 ([6]; Alpha1A): -8.88% | Inhibition 3 ([6]; Alpha1A): -13.37% | Inhibition 4 ([6]; Alpha1A): -7.39% | Mean % ([6]; Alpha2A): -4.95% | Inhibition 1 ([6]; Alpha2A): 1.83% | Inhibition 2 ([6]; Alpha2A): 1.33% | Inhibition 3 ([6]; Alpha2A): -3.6% | Inhibition 4 ([6]; Alpha2A): -19.37% | Mean % ([6]; Alpha2C): -1.59% | Inhibition 1 ([6]; Alpha2C): 8.16% | Inhibition 2 ([6]; Alpha2C): -7.23% | Inhibition 3 ([6]; Alpha2C): -5.47% | Inhibition 4 ([6]; Alpha2C): -1.81% | Mean % ([6]; BZP Rat Brain Site): -1.68% | Inhibition 1 ([6]; BZP Rat Brain Site): -9.6% | Inhibition 2 ([6]; BZP Rat Brain Site): -7.42% | Inhibition 3 ([6]; BZP Rat Brain Site): 1.02% | Inhibition 4 ([6]; BZP Rat Brain Site): 9.27% | Mean % ([6]; DOR): -7.7% | Inhibition 1 ([6]; DOR): -16.42% | Inhibition 2 ([6]; DOR): -2.69% | Inhibition 3 ([6]; DOR): 0.93% | Inhibition 4 ([6]; DOR): -12.63% | Inhibition 1 ([6]; GABAA): 12.11% and 21.01% | Inhibition 2 ([6]; GABAA): 4.71% and -10.34% | Inhibition 3 ([6]; GABAA): 1.76% and -2.77% | Inhibition 4 ([6]; GABAA): 5.45% and -49.8% | Mean % ([6]; H3): 8.09% | Inhibition 1 ([6]; H3): 9.84% | Inhibition 2 ([6]; H3): -10.86% | Inhibition 3 ([6]; H3): 12.17% | Inhibition 4 ([6]; H3): 21.2% | Mean % ([6]; H4): -2.1% | Inhibition 1 ([6]; H4): -0.42% | Inhibition 2 ([6]; H4): -2.58% | Inhibition 3 ([6]; H4): -25.38% | Inhibition 4 ([6]; H4): 19.98% | Mean % ([6]; Sigma 1): 8.41% | Mean % ([6]; Sigma 2): -5.79%

O=C(NC1CC1)C(=O)C(Cc1ccccc1)NC(=O)[C@H]1CCC(=O)N1Cc1ccccc1 (stereo partly drawn) [UNC10302676A, ABT-957 (Alicapistat)]
Mean % [1]: -5.83% | Inhibition 1 [1]: 12.89% | Inhibition 2 [1]: -15.33% | Inhibition 3 [1]: -17.78% | Inhibition 4 [1]: -3.1% | Mean % [2]: -21.21% | Inhibition 1 [2]: -14.25% | Inhibition 2 [2]: -31.51% | Inhibition 3 [2]: -11.38% | Inhibition 4 [2]: -27.71% | Mean % [3]: -3.07% | Inhibition 1 [3]: 14.23% | Inhibition 2 [3]: -14.23% | Inhibition 3 [3]: -2.94% | Inhibition 4 [3]: -9.33% | Mean % [4]: 10.85% | Inhibition 1 [4]: 10.26% | Inhibition 2 [4]: -6.41% | Inhibition 3 [4]: 23.48% | Inhibition 4 [4]: 16.06% | Mean % [5]: 30.14% | Inhibition 1 [5]: 25.06% | Inhibition 2 [5]: 27.22% | Inhibition 3 [5]: 40.62% | Inhibition 4 [5]: 27.66% | Mean % ([6]; Alpha1A): -18.33% | Inhibition 1 ([6]; Alpha1A): -14.03% | Inhibition 2 ([6]; Alpha1A): -31.43% | Inhibition 3 ([6]; Alpha1A): -21.43% | Inhibition 4 ([6]; Alpha1A): -6.43% | Mean % ([6]; Alpha2A): 5.04% | Inhibition 1 ([6]; Alpha2A): 2.51% | Inhibition 2 ([6]; Alpha2A): 2.44% | Inhibition 3 ([6]; Alpha2A): -2.65% | Inhibition 4 ([6]; Alpha2A): 17.86% | Mean % ([6]; Alpha2C): -12.84% | Inhibition 1 ([6]; Alpha2C): -8.12% | Inhibition 2 ([6]; Alpha2C): -10.33% | Inhibition 3 ([6]; Alpha2C): -21.43% | Inhibition 4 ([6]; Alpha2C): -11.46% | Mean % ([6]; BZP Rat Brain Site): 3.75% | Inhibition 1 ([6]; BZP Rat Brain Site): 19.6% | Inhibition 2 ([6]; BZP Rat Brain Site): -1.35% | Inhibition 3 ([6]; BZP Rat Brain Site): -4.1% | Inhibition 4 ([6]; BZP Rat Brain Site): 0.83% | Mean % ([6]; DOR): -6.76% | Inhibition 1 ([6]; DOR): 2.73% | Inhibition 2 ([6]; DOR): -0.34% | Inhibition 3 ([6]; DOR): -9.56% | Inhibition 4 ([6]; DOR): -19.86% | Inhibition 1 ([6]; GABAA): 23.2% and -15.74% | Inhibition 2 ([6]; GABAA): 18.02% and -7.64% | Inhibition 3 ([6]; GABAA): -2.68% and 0% | Inhibition 4 ([6]; GABAA): 4.71% and -21.69% | Mean % ([6]; H3): -14.21% | Inhibition 1 ([6]; H3): -25.14% | Inhibition 2 ([6]; H3): -2.99% | Inhibition 3 ([6]; H3): -42.04% | Inhibition 4 ([6]; H3): 13.33% | Mean % ([6]; H4): -11.52% | Inhibition 1 ([6]; H4): -3.78% | Inhibition 2 ([6]; H4): -13.62% | Inhibition 3 ([6]; H4): -23.94% | Inhibition 4 ([6]; H4): -4.74% | Mean % ([6]; Sigma 1): -2.52% | Mean % ([6]; Sigma 2): 7.31%
